# According to patent US9359378B2, “Substituted oxazolo[3,4-a]pyrazines as pharmaceutcals” (BIOLAB SANUS FARMACÊUTICA LTDA., priority 2014, dated 2016):
# Molecular target: T1, PDE6 (Bos taurus, UniProt P11541+P23439)
# T1 construct: using an enzyme isolated from Cerep bovine retina; tissue Cerep; host or cells: bovine retina
# T1 sequence (P11541 2-856 limits assumed): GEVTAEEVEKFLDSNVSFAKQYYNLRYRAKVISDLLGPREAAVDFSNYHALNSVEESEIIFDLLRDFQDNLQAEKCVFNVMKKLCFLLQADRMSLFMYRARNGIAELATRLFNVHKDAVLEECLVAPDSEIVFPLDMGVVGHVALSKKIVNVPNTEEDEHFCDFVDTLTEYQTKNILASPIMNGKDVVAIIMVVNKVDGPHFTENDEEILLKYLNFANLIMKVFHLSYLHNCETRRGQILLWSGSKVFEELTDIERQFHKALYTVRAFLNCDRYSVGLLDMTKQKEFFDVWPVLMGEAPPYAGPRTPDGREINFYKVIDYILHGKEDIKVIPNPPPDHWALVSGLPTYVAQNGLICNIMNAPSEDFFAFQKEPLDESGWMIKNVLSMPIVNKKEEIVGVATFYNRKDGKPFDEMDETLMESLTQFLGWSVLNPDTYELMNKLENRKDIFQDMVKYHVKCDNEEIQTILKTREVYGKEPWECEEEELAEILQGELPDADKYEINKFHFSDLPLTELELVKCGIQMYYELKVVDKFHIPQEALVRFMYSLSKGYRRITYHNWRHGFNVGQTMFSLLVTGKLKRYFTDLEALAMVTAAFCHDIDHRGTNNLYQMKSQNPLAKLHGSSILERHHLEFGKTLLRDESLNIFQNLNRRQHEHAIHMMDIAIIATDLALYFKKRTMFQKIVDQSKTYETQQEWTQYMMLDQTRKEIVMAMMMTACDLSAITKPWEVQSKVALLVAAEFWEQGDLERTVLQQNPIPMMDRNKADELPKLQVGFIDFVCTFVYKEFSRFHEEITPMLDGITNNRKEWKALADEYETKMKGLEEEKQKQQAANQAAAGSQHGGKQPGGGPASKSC
# T1 sequence (P23439 2-850 limits assumed): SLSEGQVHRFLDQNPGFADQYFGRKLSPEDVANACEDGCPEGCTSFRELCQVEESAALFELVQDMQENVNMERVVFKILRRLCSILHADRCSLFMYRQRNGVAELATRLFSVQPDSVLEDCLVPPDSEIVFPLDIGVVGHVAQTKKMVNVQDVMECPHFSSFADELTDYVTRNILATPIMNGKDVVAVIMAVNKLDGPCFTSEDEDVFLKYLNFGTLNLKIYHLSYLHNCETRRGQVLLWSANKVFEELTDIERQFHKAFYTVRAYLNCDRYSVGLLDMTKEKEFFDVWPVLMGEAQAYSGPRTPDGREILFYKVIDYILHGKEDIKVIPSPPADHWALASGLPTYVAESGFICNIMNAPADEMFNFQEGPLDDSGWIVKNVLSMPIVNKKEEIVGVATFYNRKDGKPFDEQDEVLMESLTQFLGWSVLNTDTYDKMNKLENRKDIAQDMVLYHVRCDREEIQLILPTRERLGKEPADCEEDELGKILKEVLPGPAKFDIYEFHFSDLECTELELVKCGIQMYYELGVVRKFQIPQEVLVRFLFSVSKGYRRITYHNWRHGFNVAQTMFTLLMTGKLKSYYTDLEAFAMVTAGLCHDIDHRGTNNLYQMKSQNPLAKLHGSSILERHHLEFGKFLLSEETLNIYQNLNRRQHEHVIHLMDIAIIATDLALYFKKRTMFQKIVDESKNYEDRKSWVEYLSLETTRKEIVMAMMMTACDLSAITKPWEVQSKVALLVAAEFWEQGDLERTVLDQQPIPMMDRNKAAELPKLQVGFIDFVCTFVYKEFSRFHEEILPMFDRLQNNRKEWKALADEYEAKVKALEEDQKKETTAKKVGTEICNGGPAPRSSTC
# Test: PDE6 enzyme inhibition (SPA, enzyme isolated from bovine retina)
# Assay type: biochemical
# Conditions: FIGS. 14 and 15, test concentration not given
# Procedure: The effects of compounds BL-230 and BL-236 on PDE6 human enzyme activity were quantified by measuring the production of 5′GMP from cGMP, using an enzyme isolated from Cerep bovine retina of and the detection method used was scintillation proximity assay (SPA).
# The test compound, the reference compound or water (control) were added to a buffer containing 40 mM Tris-HCl (pH 7.8), 3 mM MgCl2, 1.4 mM DTT, 0.21% BSA, 200 mM NH4Cl, 2 uM cGMP and 0.05 μCi of [^3H] cGMP. Then the reaction was started by adding the enzyme (final amount depending on the efficiency of the isolation) and the mixture was incubated for 60 minutes at 22° C. For basal control measurements, the enzyme was omitted from the reaction mixture. Following this, the SPA incubation beads were added. After 20 minutes at 22° C. under agitation, the amount of [^3H] 5′GMP was quantified with a scintillation counter (Topcount, Packard). The results were expressed as an inhibition percentage of the control enzyme activity. The standard inhibitory reference compound zaprinast was used, which was tested in each experiment at several concentrations to obtain an inhibition curve from which its IC50 value was calculated. […]
row,inhibition of PDE6 enzyme activity [%],SMILES
1,85,"O=C1C2=C(c3c[nH]c4ccccc34)OC(c3ccc4c(c3)OCO4)N2C(=O)CN1CCO (centres unmarked) [BL-230, 3-(benzo[d][1,3]dioxol-5yl)-7-(2-hydroxyethyl)-1-(1H-indol-3-yl)-6,7-dihydro-3H-oxazolo[3,4-a]pyrazine-5,8-dione]"
2,90,"C[C@@H](CO)N1CC(=O)N2C(=C(c3c[nH]c4ccccc34)OC2c2ccc3c(c2)OCO3)C1=O (stereo partly drawn) [BL-236, 3-(benzo[d][1,3]dioxol-5yl)-7-((S)1-hydroxypropan-2yl)-1-(1H-indol-3-yl)-6,7-dihydro-3H-oxazolo[3,4-a]pyrazine-5,8-dione]"
